Broadly, the IC50 is the concentration needed to halve the response being measured.

Assay [1] has as its system Jurkat cells. Nature of the assay: Determination of cell diameter of Jurkat cells (EVE automatic cell counter). It is filed as cell-based, human. As to the method: Cell diameters were measured with an EVE automatic cell counter (NanoEnTek, Seoul, South Korea). For cell diameter studies, a suitable protocol for Jurkat cells was established and all measurements were validated by visual inspection and if necessary corrected by hand using a personal computer based software. Viability was estimated by using trypan blue exclusion assays.
Cells were exposed to X-ray irradiation in cell culture flasks using an Isovolt 160 Titan E source with a voltage of 90 kV and 33.7 mA (GE Sensing & Inspection Technologies, Alzenau, Germany). Doses were delivered at a 30 cm source to probe distance with cell culture flasks placed on a 2 mm aluminum sheet. CDK1-inhibitor RO3306 (Axon Medchem, Groningen, Netherlands) was dissolved in DMSO at 14.2 mM and added to the cell culture medium in a final concentration of 3 µM. Cyclosporin A (Sigma-Aldrich) was dissolved in ddH2O and added to the cell culture medium of non-irradiated control cells or directly after irradiation of cells in a concentration of 1 µM. The cell permeable Ca^2+ buffer BAPTA-AM [1,2-Bis(2-aminophenoxy)ethane-N,N,N',N'-tetraacetic acid tetrakis(acetoxymethyl) ester, Thermo Fisher] was added to the cell culture medium 30 min prior to cell irradiation at 50 µM and was removed immediately after irradiation. Phytohemagglutinin (PHA-L) was purchased from Biochrom (Berlin, Germany). Cells were treated for 48 h by adding PHA-L to the cell culture medium at a concentration of 7.2 µg/ml. To activate human T-cells ImmunoCult™ Human CD3/CD28/CD2 T Cell Activator (Stem cell Technologies, Vancouver, BC, Canada) was added to the cell culture medium (25 µL per 1 mL of cell suspension) and maintained at 37°C and 5% CO2 for 48 h. The KCa2.2-specific ion channel blocker Tamapin was purchased from Alomone Labs (Jerusalem, Israel) and dissolved in purified water and diluted in external solution for patch clamp experiments.

The test system of assay [2] is Jurkat cells. Nature of the assay: Cell cycle analysis by flow cytometry (PI DNA content, cells in G2). The assay is classed as cell-based, human. Particulars: non-irradiated Jurkat cells, 3 µM RO3306. The protocol:
(§1) Cells were exposed to X-ray irradiation in cell culture flasks using an Isovolt 160 Titan E source with a voltage of 90 kV and 33.7 mA (GE Sensing & Inspection Technologies, Alzenau, Germany). Doses were delivered at a 30 cm source to probe distance with cell culture flasks placed on a 2 mm aluminum sheet. CDK1-inhibitor RO3306 (Axon Medchem, Groningen, Netherlands) was dissolved in DMSO at 14.2 mM and added to the cell culture medium in a final concentration of 3 µM. Cyclosporin A (Sigma-Aldrich) was dissolved in ddH2O and added to the cell culture medium of non-irradiated control cells or directly after irradiation of cells in a concentration of 1 µM. The cell permeable Ca^2+ buffer BAPTA-AM [1,2-Bis(2-aminophenoxy)ethane-N,N,N',N'-tetraacetic acid tetrakis(acetoxymethyl) ester, Thermo Fisher] was added to the cell culture medium 30 min prior to cell irradiation at 50 µM and was removed immediately after irradiation. […]
Flow cytometric analyses were performed after 48 h following irradiation with propidium iodide (PI) solution (4% PI stock, 0.5 mg/ml PI, 38 mM sodium citrate, pH 7), 5% RNAse A stock (RNAse A 5 mg/ml, Tris–HCl 10 mM, NaCl 15 mM, pH 7) using a BioRad S3 Cell Sorter and the FlowJo 10 software for analysis (FlowJo LLC). The percentage of cells in G2/M phases was determined by single-parameter histograms of DNA content.
(In general: A flow cytometer gives signals particle by particle.)

The subject of assay [3] is peripheral blood lymphocytes (PBL). Nature of the assay: Determination of cell diameter of PBL after mitogen stimulation. It is filed as cell-based, human. The settings on record: PHA-L 7.2 µg/ml, 48 h. As to the method:
Jurkat cells (ACC 282) were purchased from the German Collection of Microorganisms and Cell Cultures (DSMZ, Braunschweig, Germany). The human EC line EA.hy926 (Crl-2922) was established by fusion of human umbilical vein ECs and the adenocarcinoma epithelial cell line A549 ([18]) and was purchased from ATCC (LGC Standards, Wesel, Germany). Cells were either grown in RPMI 1640 medium (Jurkat), supplemented with 10% heat inactivated fetal calf serum (FCS; PAA, Cölbe, Germany) and 2 mM L-glutamine or in Dulbecco’s modified Eagle’s medium (Invitrogen, Karlsruhe, Germany), supplemented with 10% FCS 50 U/ml penicillin and 5 µg/ml streptomycin (Sigma-Aldrich, Munich, Germany). PBL were isolated from buffy coats using density gradient centrifugation (Biochrom, Berlin, Germany). After centrifugation (40 min at 1,000 × g, RT) interphase cells were isolated, washed twice with PBS, and pelleted by centrifugation (300 × g, 10 min). For adhesion assays, Jurkat cells and PBL were biotinylated by incubation (15 min on ice) with a biotin-N-hydroxysuccinimid ester (NHS-biotin, 10 mg/ml, Sigma-Aldrich) and maintained in RPMI 1640 Medium with 20% FCS, 1% HEPES, and 1% penicillin/streptomycin prior to assays. […]
Cell diameters were measured with an EVE automatic cell counter (NanoEnTek, Seoul, South Korea). […]

Assay [4] concerns KCa2.2 channels. Particulars: cited from earlier work.
For assay [5], the target named is T1, KCa2.2 channels (Homo sapiens, UniProt Q9H2S1).
T1 construct: This small current includes, among others, the voltage independent small conductance K^+ channel KCa2.2; endogenous in cells; host or cells: Jurkat cells (ACC 282, DSMZ)
Nature of the assay: Whole cell patch clamp recording of background current Ib in Jurkat cells. The settings on record: Tamapin 10 nM. The assay is classed as cell-based. The protocol:
as §1, with “irradiation. Phytohemagglutinin (PHA-L) was purchased from Biochrom (Berlin, Germany). Cells were treated for 48 h by adding PHA-L to the cell culture medium at a concentration of 7.2 µg/ml.” for “irradiation.”
Membrane currents of cells were recorded in a whole cell configuration ([26]) using an EPC-9 amplifier (HEKA Electronics, Lambrecht, Germany). […] Currents were recorded and data analyzed with an EPC-9 amplifier and Patchmaster Software (all from Heka Electronic).
Background: The patch-clamp technique gives a direct electrical read-out from membranes.

T1 sequence (Q9H2S1 whole entry): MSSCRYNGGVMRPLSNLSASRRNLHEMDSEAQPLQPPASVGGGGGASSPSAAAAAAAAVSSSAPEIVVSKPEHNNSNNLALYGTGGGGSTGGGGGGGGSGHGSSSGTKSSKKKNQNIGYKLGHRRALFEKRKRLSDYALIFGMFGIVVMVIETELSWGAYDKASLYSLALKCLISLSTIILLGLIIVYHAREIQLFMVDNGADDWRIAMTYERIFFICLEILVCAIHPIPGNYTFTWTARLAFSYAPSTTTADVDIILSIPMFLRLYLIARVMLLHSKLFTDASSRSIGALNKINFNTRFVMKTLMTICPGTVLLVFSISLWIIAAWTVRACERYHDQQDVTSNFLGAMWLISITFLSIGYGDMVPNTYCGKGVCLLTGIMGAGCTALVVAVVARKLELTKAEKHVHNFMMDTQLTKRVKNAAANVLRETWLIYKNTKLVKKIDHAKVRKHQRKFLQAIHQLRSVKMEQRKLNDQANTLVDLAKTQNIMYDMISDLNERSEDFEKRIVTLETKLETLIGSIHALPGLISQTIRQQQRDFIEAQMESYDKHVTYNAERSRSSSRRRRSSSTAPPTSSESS

As for `CC(=O)OCOC(=O)CN(CC(=O)OCOC(C)=O)c1ccccc1OCCOc1ccccc1N(CC(=O)OCOC(C)=O)CC(=O)OCOC(C)=O` [BAPTA-AM, 1,2-Bis(2-aminophenoxy)ethane-N,N,N',N'-tetraacetic acid tetrakis(acetoxymethyl) ester], in the assay on Jurkat cells [1] (Jurkat cells irradiated with 2 Gy, cyclosporine A 1 µM or BAPTA-AM 50 µM), the “effect on radiation-induced increase in cell diameter” value is recorded as “decreased the effect of irradiation”. Besides, in the assay on Jurkat cells [1] (irradiated Jurkat cells, cyclosporine A 1 µM or BAPTA-AM 50 µM), the “reduction of the radiation-induced cell diameter increase” value is recorded as 50%.

For the compound `O=C1NC(=NCc2cccs2)S/C1=C\c1ccc2ncccc2c1` [RO3306], the “increase in cell diameter” value in the assay on Jurkat cells [1] (non-irradiated Jurkat cells, 3 µM RO3306) came to 9.6 ± 3%. For the same compound, in the assay with Jurkat cells [2], the “cells arrested in G2 phase” value was found to be 71%.

Consider Phytohemagglutinin [PHA-L], for which the “fraction of cells with increased mean size” value in assay [3] (PBL from healthy donors, fit with two Gaussians) was found to be 45%. The “mean size (diameter) of the enlarged cell population” value in assay [3] (PBL, mock treated 7.2 µm) was 10.2 µm.

For the compound “Tamapin: scorpion toxin, KCa2.2-specific ion channel blocker (Alomone Labs) (AFCNLRRCELSCRSLGLLGKCIGEECKCVPY; UniProt P59869 1-31, looked up)”, the half-maximal inhibitory concentration (IC50) with KCa2.2 channels [4] is 0.024 nM. The “inhibition of Ib” value in the assay with KCa2.2 channels [5] (irradiated Jurkat cells (1.25 Gy, 48 h after X-ray)) is 23 ± 10%; with KCa2.2 channels [5] (mock-irradiated control Jurkat cells, N = 3), 3.3 ± 0.7%.
